Bridge positions count the residues as written; N and C are the ends. Ends that are not written are not given here.
Test system: patients with chronic idiopathic constipation (CIC)
Test: Second phase 3 CIC trial: durable overall CSBM responders
Assay type: in vivo, human
Conditions: MRA; for Difference in Proportions (adjusted), durable overall CSBM responders / Odds Ratio (adjusted), durable overall CSBM responders: adjusted for gender
Source text: Both trials include a two-week pre-treatment baseline period, a 12-week treatment period, and a two-week post-treatment period. The phase 3 CIC program was designed to support regulatory submission in the U. S.
The primary endpoint for both trials is the proportion of durable overall responders (%), which is the current regulatory endpoint required for U.S. approval in CIC. The FDA has defined a durable overall responder as a patient who fulfills both ≧3 complete spontaneous bowel movements (CSBMs) per week plus an increase of ≧1 CSBM from baseline in the same week, for 9 out of the 12 treatment weeks. In addition, the same patient must be an overall responder for at least 3 of the last 4 treatment weeks in order to be considered a durable overall responder.
Patients were selected using Rome 3 criteria modified for CIC and had (1) fewer than 3 defecations per week, (2) loose stools occurring rarely without laxatives, (3) inadequate criteria for irritable bowel syndrome with constipation (IBS-C), and (4) at least two of the following applied to at least 25% of defecations: (a) straining during evacuation, (b) lumpy or hard stools, (c) sensation of anorectal obstruction or blockage. Rome 3 requires patients to fulfill the criteria for the last 3 months with symptom onset at least 6 months prior to diagnosis.

[1] = Active Combined (N = 877), ITT Population-Excluding Duplicate Patients
[2] = Active Combined (N = 892), ITT Population
[3] = Active Combined (N = 941), All Randomized (includes Duplicate Patients)
[4] = Plecanatide 3 mg (N = 434), ITT Population-Excluding Duplicate Patients
[5] = Plecanatide 3 mg (N = 443), ITT Population
[6] = Plecanatide 3 mg (N = 470), All Randomized (includes Duplicate Patients)
[7] = Plecanatide 6 mg (N = 443), ITT Population-Excluding Duplicate Patients
[8] = Plecanatide 6 mg (N = 449), ITT Population
[9] = Plecanatide 6 mg (N = 471), All Randomized (includes Duplicate Patients)

Asn^1-Asp^2-Glu^3-Cys^4-Glu^5-Leu^6-Cys^7-Val^8-Asn^9-Val^10-Ala^11-Cys^12-Thr^13-Gly^14-Cys^15-Leu^16 (NDECELCVNVACTGCL; disulfide 4-12, 7-15) [Plecanatide, uroguanylin analogue, guanylate cyclase-C agonist; (C4:C12, C7:C15) bicycle peptide]
Durable Overall CSBM Responders, % [1]: 20.4%
Non-Responders, % [1]: 79.6%
Durable Overall CSBM Responders, % [2]: 20.1%
Non-Responders, % [2]: 79.9%
Durable Overall CSBM Responders, % [3]: 19.7%
Non-Responders, % [3]: 80.3%
Durable Overall CSBM Responders, % [4]: 20.5%
Non-Responders, % [4]: 79.5%
Durable Overall CSBM Responders, % [5]: 20.1%
Non-Responders, % [5]: 79.9%
Durable Overall CSBM Responders, % [6]: 19.8%
Non-Responders, % [6]: 80.2%
Difference in Proportions (adjusted), durable overall CSBM responders (Plecanatide 3 mg minus Placebo, All Randomized (includes Duplicate Patients)): 0.076
Difference in Proportions (adjusted), durable overall CSBM responders (Plecanatide 3 mg minus Placebo, ITT Population): 0.073
Difference in Proportions (adjusted), durable overall CSBM responders (Plecanatide 3 mg minus Placebo, ITT Population-Excluding Duplicate Patients): 0.075
Odds Ratio (adjusted), durable overall CSBM responders (Plecanatide 3 mg, All Randomized (includes Duplicate Patients)): 0.562
Odds Ratio (adjusted), durable overall CSBM responders (Plecanatide 3 mg, ITT Population): 0.586
Odds Ratio (adjusted), durable overall CSBM responders (Plecanatide 3 mg, ITT Population-Excluding Duplicate Patients): 0.583
Durable Overall CSBM Responders, % [7]: 20.3%
Non-Responders, % [7]: 79.7%
Durable Overall CSBM Responders, % [8]: 20.0%
Non-Responders, % [8]: 80.0%
Durable Overall CSBM Responders, % [9]: 19.5%
Non-Responders, % [9]: 80.5%
Difference in Proportions (adjusted), durable overall CSBM responders (Plecanatide 6 mg minus Placebo, All Randomized (includes Duplicate Patients)): 0.074
Difference in Proportions (adjusted), durable overall CSBM responders (Plecanatide 6 mg minus Placebo, ITT Population): 0.072
Difference in Proportions (adjusted), durable overall CSBM responders (Plecanatide 6 mg minus Placebo, ITT Population-Excluding Duplicate Patients): 0.073
Odds Ratio (adjusted), durable overall CSBM responders (Plecanatide 6 mg, All Randomized (includes Duplicate Patients)): 0.571
Odds Ratio (adjusted), durable overall CSBM responders (Plecanatide 6 mg, ITT Population): 0.587
Odds Ratio (adjusted), durable overall CSBM responders (Plecanatide 6 mg, ITT Population-Excluding Duplicate Patients): 0.589
